In patent US20030229451A1, “Methods and systems for analyzing complex biological systems” (priority 2001, published 2003):

Test system: Arabidopsis thaliana
Test: MOA1 biochemical (metabolite) profiling by LC-MS and GC-MS
Conditions: 20 min, p < 0.05

Structure (SMILES) | Number of Metabolites Changed: (unknown #) | Number of Metabolites Changed: Total #
O=C(O)COc1ccc(Cl)cc1Cl [2,4-D] | 2 | 3
O=C(O)c1cc(Oc2ccc(C(F)(F)F)cc2Cl)ccc1[N+](=O)[O-] [Acifluorfen] | 11 | 17
Nc1nc[nH]n1 [Amitrole] | 6 | 9
CCNc1nc(Cl)nc(NC(C)C)n1 [Atrazine] | 4 (4) | 4 (4)
CC(C)N1C(=O)c2ccccc2NS1(=O)=O [Bentazon] | 3 | 9
CCSC(=O)N(CC(C)C)CC(C)C [Butylate] | 10 | 17
CC(C)OC(=O)Nc1cccc(Cl)c1 [Chloropropham] | 8 | 12
CC(C)C1(C)N=C(c2ncccc2C(=O)O)NC1=O (stereo not drawn) [Imazapyr] | 2 | 5
CCC(C)(CC)c1cc(NC(=O)c2c(OC)cccc2OC)on1 [Isoxaben] | 12 | 26
CNc1cnn(-c2cccc(C(F)(F)F)c2)c(=O)c1Cl [Norflurazon] | 27 | 38

Same assay, conditions: 20 min, p < 0.11

Structure (SMILES) | Number of Metabolites Changed: (unknown #) | Number of Metabolites Changed: Total #
O=C(O)COc1ccc(Cl)cc1Cl [2,4-D] | 8 | 13
O=C(O)c1cc(Oc2ccc(C(F)(F)F)cc2Cl)ccc1[N+](=O)[O-] [Acifluorfen] | 20 | 32
Nc1nc[nH]n1 [Amitrole] | 13 | 17
CCNc1nc(Cl)nc(NC(C)C)n1 [Atrazine] | 8 | 11
CC(C)N1C(=O)c2ccccc2NS1(=O)=O [Bentazon] | 6 | 10
CCSC(=O)N(CC(C)C)CC(C)C [Butylate] | 21 | 33
CC(C)OC(=O)Nc1cccc(Cl)c1 [Chloropropham] | 10 | 17
CC(C)C1(C)N=C(c2ncccc2C(=O)O)NC1=O (stereo not drawn) [Imazapyr] | 3 | 9
CCC(C)(CC)c1cc(NC(=O)c2c(OC)cccc2OC)on1 [Isoxaben] | 21 | 45
CNc1cnn(-c2cccc(C(F)(F)F)c2)c(=O)c1Cl [Norflurazon] | 36 | 55

Same assay, conditions: 1 hr, p < 0.05

Structure (SMILES) | Number of Metabolites Changed: (unknown #) | Number of Metabolites Changed: Total #
O=C(O)COc1ccc(Cl)cc1Cl [2,4-D] | 3 | 7
O=C(O)c1cc(Oc2ccc(C(F)(F)F)cc2Cl)ccc1[N+](=O)[O-] [Acifluorfen] | 13 | 19
Nc1nc[nH]n1 [Amitrole] | 8 | 14
CCNc1nc(Cl)nc(NC(C)C)n1 [Atrazine] | 8 | 17
CC(C)N1C(=O)c2ccccc2NS1(=O)=O [Bentazon] | 9 | 11
CCSC(=O)N(CC(C)C)CC(C)C [Butylate] | 12 | 18
CC(C)OC(=O)Nc1cccc(Cl)c1 [Chloropropham] | 5 | 12
CC(C)C1(C)N=C(c2ncccc2C(=O)O)NC1=O (stereo not drawn) [Imazapyr] | 6 | 8
CCC(C)(CC)c1cc(NC(=O)c2c(OC)cccc2OC)on1 [Isoxaben] | 16 | 25
CNc1cnn(-c2cccc(C(F)(F)F)c2)c(=O)c1Cl [Norflurazon] | 5 | 6

Same assay, conditions: 1 hr, p < 0.11

Structure (SMILES) | Number of Metabolites Changed: (unknown #) | Number of Metabolites Changed: Total #
O=C(O)COc1ccc(Cl)cc1Cl [2,4-D] | 15 | 25
O=C(O)c1cc(Oc2ccc(C(F)(F)F)cc2Cl)ccc1[N+](=O)[O-] [Acifluorfen] | 22 | 31
Nc1nc[nH]n1 [Amitrole] | 20 | 32
CCNc1nc(Cl)nc(NC(C)C)n1 [Atrazine] | 24 | 49
CC(C)N1C(=O)c2ccccc2NS1(=O)=O [Bentazon] | 14 | 19
CCSC(=O)N(CC(C)C)CC(C)C [Butylate] | 22 | 31
CC(C)OC(=O)Nc1cccc(Cl)c1 [Chloropropham] | 10 | 20
CC(C)C1(C)N=C(c2ncccc2C(=O)O)NC1=O (stereo not drawn) [Imazapyr] | 10 | 14
CCC(C)(CC)c1cc(NC(=O)c2c(OC)cccc2OC)on1 [Isoxaben] | 33 | 55
CNc1cnn(-c2cccc(C(F)(F)F)c2)c(=O)c1Cl [Norflurazon] | 8 | 12

Test system: Arabidopsis thaliana plants
Test: SOA1 phenotypic analysis of herbicide-treated Arabidopsis (MIC, Tmic, leaf traits)
Type: in vivo
Conditions: herbicide-treated Arabidopsis

Structure (SMILES) | characteristic morphological symptoms
O=C(O)c1cc(Oc2ccc(C(F)(F)F)cc2Cl)ccc1[N+](=O)[O-] [Acifluorfen] | Necrotic leaf flecks
Nc1nc[nH]n1 [Amitrole] | leaf bleaching and leaf enlargement
CCNc1nc(Cl)nc(NC(C)C)n1 [Atrazine] | rapid and widespread leaf necrosis
CC(C)N1C(=O)c2ccccc2NS1(=O)=O [Bentazon] | rapid and widespread leaf necrosis
COC(=O)c1cc(Oc2ccc(Cl)cc2Cl)ccc1[N+](=O)[O-] [Bifenox] | Necrotic leaf flecks
c1cc[n+]2c(c1)-c1cccc[n+]1CC2 [Diquat] | rapid and widespread leaf necrosis
CN(C)C(=O)Nc1ccc(Cl)c(Cl)c1 [Diuron] | rapid and widespread leaf necrosis
CC(C)C1(C)N=C(c2ncccc2C(=O)O)NC1=O (stereo not drawn) [Imazapyr] | anthocyanin accumulation in the older leaves accompanied by chlorosis of the newly emerging leaves
CCc1cnc(C2=NC(C)(C(C)C)C(=O)N2)c(C(=O)O)c1 (stereo not drawn) [Imazethapyr] | anthocyanin accumulation in the older leaves accompanied by chlorosis of the newly emerging leaves
CSc1nnc(C(C)(C)C)c(=O)n1N [Metribuzin] | rapid and widespread leaf necrosis

Same assay, conditions: numeric value standardized to mock treated

Structure (SMILES) | leafCurling Dev. | leafTwisting Dev. | leafWidth Dev. | matureLeafAnthocyanins Dev. | matureLeafChlorosis Dev. | matureLeafNecrosis Dev. | newLeafAnthocyanins Dev. | newLeafChlorosis Dev. | newLeafNecrosis Dev. | pointedLeaves Dev.
O=C(O)COc1ccc(Cl)cc1Cl [2,4-D] | 1 | 2 | −1 | 1 | 2 | 0 | 0 | 1 | 0 | 0
O=C(O)c1cc(Oc2ccc(C(F)(F)F)cc2Cl)ccc1[N+](=O)[O-] [Acifluorfen] | 1 | 0 | 0 | 0 | 0 | 1 | 0 | 0 | 3 | 0
Nc1nc[nH]n1 [Amitrole] | −1 | 0 | 2 | 0 | 3 | 0 | 0 | 4 | 0 | 0
CCNc1nc(Cl)nc(NC(C)C)n1 [Atrazine] | 1 | 0 | −1 | 0 | 1 | 4 | 0 | 1 | 4 | 1
O=C(O)Cn1c(=O)sc2cccc(Cl)c21 [Benazolin] | 2 | 2 | −2 | 0 | 0 | 0 | 0 | 0 | 0 | 0
CC(C)N1C(=O)c2ccccc2NS1(=O)=O [Bentazon] | 2 | 0 | −2 | 0 | 2 | 4 | 0 | 2 | 4 | 1
COC(=O)c1cc(Oc2ccc(Cl)cc2Cl)ccc1[N+](=O)[O-] [Bifenox] | 1 | 0 | 0 | 0 | 0 | 1 | 0 | 0 | 3 | 0
COc1c(Cl)ccc(Cl)c1C(=O)O [Dicamba] | 2 | 2 | −2 | 0 | 2 | 0 | 0 | 0 | 0 | 0
c1cc[n+]2c(c1)-c1cccc[n+]1CC2 [Diquat] | 2 | 0 | −2 | 0 | 1 | 4 | 0 | 1 | 4 | 1
CN(C)C(=O)Nc1ccc(Cl)c(Cl)c1 [Diuron] | 1 | 0 | −2 | 0 | 2 | 4 | 0 | 2 | 4 | 1
CC(C)C1(C)N=C(c2ncccc2C(=O)O)NC1=O (stereo not drawn) [Imazapyr] | 0 | 0 | 0 | 2 | 0 | 0 | 0 | 2 | 0 | 0
CCc1cnc(C2=NC(C)(C(C)C)C(=O)N2)c(C(=O)O)c1 (stereo not drawn) [Imazethapyr] | 1 | 1 | 0 | 3 | 0 | 0 | 0 | 2 | 0 | 0
CSc1nnc(C(C)(C)C)c(=O)n1N [Metribuzin] | 1 | 0 | −2 | 0 | 2 | 4 | 0 | 2 | 4 | 1

Same assay, conditions: three-week-old Arabidopsis, phenotype class (FIG. 12)

Structure (SMILES) | Symptom Class
O=C(O)COc1ccc(Cl)cc1Cl [2,4-D] | 5

Same assay, conditions: time to full range of symptoms at MIC, coded

Structure (SMILES) | tMic Dev.
O=C(O)COc1ccc(Cl)cc1Cl [2,4-D] | 2
O=C(O)c1cc(Oc2ccc(C(F)(F)F)cc2Cl)ccc1[N+](=O)[O-] [Acifluorfen] | 1
Nc1nc[nH]n1 [Amitrole] | 2
CCNc1nc(Cl)nc(NC(C)C)n1 [Atrazine] | 1
O=C(O)Cn1c(=O)sc2cccc(Cl)c21 [Benazolin] | 2
CC(C)N1C(=O)c2ccccc2NS1(=O)=O [Bentazon] | 1
COC(=O)c1cc(Oc2ccc(Cl)cc2Cl)ccc1[N+](=O)[O-] [Bifenox] | 1
COc1c(Cl)ccc(Cl)c1C(=O)O [Dicamba] | 2
c1cc[n+]2c(c1)-c1cccc[n+]1CC2 [Diquat] | 2
CN(C)C(=O)Nc1ccc(Cl)c(Cl)c1 [Diuron] | 1
CC(C)C1(C)N=C(c2ncccc2C(=O)O)NC1=O (stereo not drawn) [Imazapyr] | 2
CCc1cnc(C2=NC(C)(C(C)C)C(=O)N2)c(C(=O)O)c1 (stereo not drawn) [Imazethapyr] | 2
CSc1nnc(C(C)(C)C)c(=O)n1N [Metribuzin] | 1
